Source: patent publication US20260183392A1, “METHODS AND KITS FOR DNA EDITING AND TREATING, AMELIORATING AND/OR PREVENTING CANCER” (FC IP Holdings, LLC, priority 2022, published 2026)

Legend:
[1] = test system: RAB11A locus and TRAC locus in human primary T cells; experiment: GFP reporter knock-in at RAB11A or TRAC locus in human primary T cells; assay type: cell-based; conditions: 1 μM for 24 hours vs DMSO; cssDNA donors; Day 7
Experimental: FIGS. 5A-5D: Innate immune response in primary T cells, in accordance with some embodiments. FIG. 5A: Schematic diagram of the GFP reporter cssDNA targeting RAB11A locus and TRAC locus (Upper). GFP reporter knock-in efficiency with cssDNA donor templates in human primary T cells. Immediately after electroporation, cells were treated with either DMSO or 1 μM M-3814 for 24 hours. The knock-in efficiency was examined on Day 7 post electroporation. FIG. 5B. Secreted IFN-γ and TNF-α cytokines levels in cultured primary T medium after electroporation with buffer, dsDNA, cssDNA or mRNA molecules. Conditioned media were collected for cytokine analysis using the Ella immunoassay platform with selected panels. FIGS. 5C-5D: Gene set enrichment analysis (GSEA) enrichment analysis of interferon gamma response genes on the differential expression genes (DEG) of from the dsDNA or cssDNA treated primary T cells. […]
Genetically engineered T cell immunotherapies have provided remarkable clinical success to treat B cell acute lymphoblastic leukemia and have the potential to provide therapeutic benefit for numerous other cancers, infectious diseases, and autoimmunity. […] Primary T cells were co-electroplated with respective RNPs, and knock-in efficiency was determined on Day 7 post electroporation by GFP^+ cell percentage using flow cytometry. […]

iPSC = experiment: Cell viability / cell health of engineered iPSC; assay type: cell-based
Text: FIGS. 3A-3H: induced pluripotent stem cells (iPSC) engineering according to some embodiments. FIG. 3A: GFP knock-in efficiency (on Day 7) at RAB11A locus in iPSC using cssDNA or dsDNA as donor templates. FIG. 3B: Cell viability of cssDNA- and dsDNA-engineered iPSC as measured on Day 3. FIG. 3C: Does-dependent GFP reporter knock-in using GFP reporter cssDNA targeting RAB11A or B2M locus. FIG. 3D: GFP fluorescence and phase contrast imaging of representative engineered iPSC colony. FIG. 3E: Schematic diagram of cssDNA donor templates for multiplexed reporter gene knock-in at RAB11A and B2M loci. FIG. 3F: Dual knock-in of mCherry and GFP report genes at the same RAB11A locus. FIG. 3G: Dual knock-in of mCherry and GFP report genes at RAB11A locus and B2M locus, respectively. […] GFP knock-in efficiency was assessed on Day 7 post electroporation by flow cytometry. […]
The present study next evaluated small-molecule inhibitors that have been reported to enhance knock-in efficiency, including the DNA-dependent protein kinase (DNA-PK) inhibitor M-3814 and “Alt-R HDR enhancer 2” (HDRe.v2), which is described as a nonhomologous end joining (NHEJ) inhibitor (Kath et al., Mol Ther Methods Clin Dev. 2022 April 12:25:311-330; Shy et al., Nat Biotechnol. 2023 April; 41 (4): 521-531; and Tatiossian et al., Mol Ther. 2021 Mar. 3; 29 (3): 1057-1069). […]

[2] = test system: TRAC locus in primary T cells; experiment: Anti-CD19xCD22 CAR knock-in at TRAC locus in primary T cells (Protein L, flow cytometry); assay type: cell-based, human; conditions: 2 μg of cssDNA plus 1 μM M-3814; Day 7
Text: FIGS. 7A-7I: CAR-T cell engineering with cssDNA, in accordance with some embodiments. FIG. 7A: Schematic diagram of nonviral CAR-T cell engineering process. Pan T cells are isolated from peripheral blood and activated on day 0 with anti-CD3/anti-CD28 TransAct. Cells are electroporated using the Lonza nucleofector on day 2 with Cas9 RNPs+cssDNA HDR donor templates and then expanded for a total of 7-10 days. FIG. 7B: Representative day 7 flow cytometry graphs showing CAR knock-in for Mock (un-engineered) and cssDNA-engineered T cells with DMSO or 1 μM M-3814 treatments. FIG. 7C: Representative day 7 flow plots and quantifications of CAR knock-in for mock (un-engineered), cssDNA- or AAV6-engineered T cells. Cells were treated with 1 μM M-3814 for 1 day immediately after electroporation. FIG. 7D: Expansion ability of engineered CAR-T cells. FIG. 7E: In vitro killing of NALM6 acute lymphoblastic leukemia cell line with cssDNA-, AAV6-engineered CAR-T cells in comparison to unmodified T cells from same blood donors after 24 hours of co-culture. The in vitro killing measured by live cell imaging using IncuCyte® live cell imaging system. […] FIG. 7G: the data of FIG. 7F, expressed as a bar chart. […] I. FIG. 7I, Tumor burden shown as bioluminescent signal quantified per animal every week over a 21-day period. n=5 mice per group. […]

human B2M locus = experiment: Screen of crRNA for Cpf1 at human B2M locus (cleavage efficiency)

| Molecule | increase of knock-in efficiency [1] | live cell counts (iPSC; at the chosen concentrations) | reduction in cell viability (iPSC; higher doses, day 4 post-electroporation) | knock-in efficiency (percentage of CAR+ cells) [2] [%] | cleavage efficiency (human B2M locus) |
| --- | --- | --- | --- | --- | --- |
| COc1ccc([C@@H](O)c2cc(-c3ncnc4cc(N5CCOCC5)ccc34)c(F)cc2Cl)nn1 [M-3814] | 60-150% | generally unaffected | roughly 38% | 56.3 | – |
| Cpf1-crRNA: crRNA for Cpf1 at human B2M locus identified by screening (guide AGUGGGGGUGAAUUCAGUGU; chemistry not fully specified) | – | – | – | – | over 95% |
